Experimental data published in the supplement of paper PMC10307832.

Assays:
Test in all cases: relative viability (nuclei count vs DMSO), 5 days (fraction); higher = more cells survive
[1] = compound: CC[C@H](C)N1C=C(C2=C(C=C(C=C21)C3=CN=C(C=C3)N4CCNCC4)C(=O)NCC5=C(C=C(NC5=O)C)C)C [GSK126] + Cc1nc(NC(=O)N2CCC[C@H]2C(N)=O)sc1-c1ccnc(C(C)(C)C(F)(F)F)c1 [Alpelisib] (partner 2 µM)
Summary of the method: (§1)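 Lung cancer cell lines in 1536-well plates got either a single drug or a fixed anchor-drug dose together with five library-drug doses (not always all listed) in √10 steps, by pin tool, on the day after seeding. Nuclei were counted after 5 days, and relative viability is the treated-to-vehicle ratio of nuclei counts. Values are medians of duplicate plates.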

[2] = compound: NS(=O)(=O)OC[C@@H]1C[C@@H](n2ccc3c(N[C@H]4CCc5ccccc54)ncnc32)C[C@@H]1O [MLN4924] + CC(=O)Nc1cccc(-n2c(=O)n(C3CC3)c(=O)c3c(Nc4ccc(I)cc4F)n(C)c(=O)c(C)c32)c1 [Trametinib] (partner 0.02 µM)
Summary of the method: as §1

[3] = compound: CC[C@H](C)N1C=C(C2=C(C=C(C=C21)C3=CN=C(C=C3)N4CCNCC4)C(=O)NCC5=C(C=C(NC5=O)C)C)C [GSK126] + CC1(C)CCC(c2ccc(Cl)cc2)=C(CN2CCN(c3ccc(C(=O)NS(=O)(=O)c4ccc(N[C@H](CCN5CCOCC5)CSc5ccccc5)c(S(=O)(=O)C(F)(F)F)c4)cc3)CC2)C1 [Navitoclax] (partner 0.5 µM)
Summary of the method: as §1

[4] = compound: C1CC(C1)(C(=O)O)C(=O)O.[NH2-].[NH2-].[Pt+2] [Carboplatin] + COc1cc2c(Oc3ccc(NC(=O)C4(C(=O)Nc5ccc(F)cc5)CC4)cc3F)ccnc2cc1OCCCN1CCOCC1 [Foretinib] (partner 0.25 µM)
Summary of the method: as §1

Row | Cell Line | relative viability ([1]; first compound 0.08 µM) | relative viability ([1]; first compound 0.253 µM) | relative viability ([1]; first compound 0.8 µM) | relative viability ([1]; first compound 2.53 µM) | relative viability ([1]; first compound 8 µM) | relative viability ([2]; first compound 0.04 µM) | relative viability ([2]; first compound 0.1265 µM) | relative viability ([2]; first compound 0.4 µM) | relative viability ([2]; first compound 1.265 µM) | relative viability ([2]; first compound 4 µM) | relative viability ([3]; first compound 0.08 µM) | relative viability ([3]; first compound 0.253 µM) | relative viability ([3]; first compound 0.8 µM) | relative viability ([3]; first compound 2.53 µM) | relative viability ([3]; first compound 8 µM) | relative viability ([4]; first compound 0.08 µM) | relative viability ([4]; first compound 0.253 µM) | relative viability ([4]; first compound 0.8 µM) | relative viability ([4]; first compound 2.53 µM) | relative viability ([4]; first compound 8 µM)
1 | 201T | 0.999 | 1.07 | 1.02 | 1.05 | 1.1 | 0.786 | 0.676 | 0.523 | 0.3 | 0.322 | 1.18 | 1.27 | 1.27 | 1.26 | 1.32 | 1.28 | 1.05 | 0.917 | 0.867 | 0.618
2 | A549 | 0.917 | 0.75 | 0.749 | 0.826 | 0.796 | – | – | – | – | – | 1.37 | 1.28 | 1.23 | 1.24 | 1.13 | 1.03 | 0.991 | 0.888 | 0.768 | 0.741
3 | A-427 | 1.12 | 1.07 | 1.05 | 1.16 | 1.06 | 0.612 | 0.477 | 0.334 | 0.271 | 0.263 | 1.04 | 1 | 0.836 | 0.959 | 0.845 | 1.16 | 1.15 | 1.03 | 0.992 | 1.16
4 | ABC-1 | 1.19 | 1.31 | 1.02 | 1.11 | 1.01 | – | – | – | – | – | – | – | – | – | – | 1.28 | 1.09 | 1.1 | 0.769 | 0.398
5 | BEN | 1.1 | 0.996 | 1.04 | 1.16 | 0.734 | 1 | 0.733 | 0.548 | 0.372 | 0.287 | 0.0742 | 0.0598 | 0.0517 | 0.0958 | 0.0522 | 0.778 | 0.654 | 0.69 | 0.658 | 0.589
6 | CAL-12T | 1.31 | 1.3 | 1.08 | 1.22 | 1.39 | 0.373 | 0.371 | 0.269 | 0.279 | 0.158 | 1.27 | 1.27 | 0.967 | 1.1 | 1.33 | 1.1 | 1.06 | 1.2 | 1.02 | 1.07
7 | COR-L23 | 0.814 | 0.826 | 0.792 | 0.755 | 0.647 | 0.633 | 0.683 | 0.416 | 0.162 | 0.122 | 1.17 | 1.01 | 0.834 | 0.95 | 0.968 | 0.948 | 0.94 | 0.91 | 0.729 | 0.512
8 | COR-L 105 | 0.984 | 1.03 | 0.927 | 1.02 | 0.966 | 0.433 | 0.417 | 0.422 | 0.3 | 0.339 | 0.813 | 0.745 | 0.754 | 0.678 | 0.719 | 0.986 | 0.993 | 0.902 | 0.897 | 0.578
9 | Calu-6 | 1.04 | 0.983 | 1 | 1.01 | 1.07 | – | – | – | – | – | 0.936 | 0.858 | 0.853 | 0.842 | 0.795 | 0.911 | 0.919 | 0.793 | 0.789 | 0.415
10 | ChaGo-K-1 | – | – | – | – | – | 0.763 | 0.411 | 0.392 | 0.186 | 0.174 | 1.19 | 0.925 | 1.03 | 1.27 | 1.09 | 0.872 | 0.993 | 0.835 | 0.745 | 0.579
11 | EBC-1 | 1.03 | 0.792 | 0.783 | 0.729 | 0.762 | – | – | – | – | – | 0.449 | 0.407 | 0.365 | 0.477 | 0.362 | 0.0979 | 0.108 | 0.108 | 0.0821 | 0.101
12 | EKVX | 0.961 | 0.92 | 0.819 | 0.813 | 0.746 | 0.314 | 0.349 | 0.319 | 0.244 | 0.193 | 0.984 | 0.95 | 0.902 | 0.97 | 0.853 | 0.903 | 0.893 | – | 0.749 | 0.747
13 | EMC-BAC-2 | 0.785 | 0.77 | 0.718 | 0.731 | 0.765 | 0.762 | 0.589 | 0.466 | 0.324 | 0.35 | 1.09 | 1.18 | 1.14 | 1.18 | 1.23 | 1.07 | 1.06 | 1.02 | 1.03 | 0.898
14 | EPLC-272H | 1.05 | 0.997 | 0.919 | 0.951 | 0.902 | 0.339 | 0.333 | 0.0863 | 0.147 | 0.126 | 1.24 | 1.15 | 1.29 | 1.17 | 1.2 | 0.785 | 0.852 | 0.727 | 0.611 | 0.602
15 | H3255 | 0.716 | 0.679 | 0.847 | 0.643 | 0.738 | 0.591 | 0.53 | 0.409 | 0.304 | 0.306 | 0.591 | 0.606 | 0.5 | 0.522 | 0.505 | 0.905 | 0.872 | 0.875 | 0.898 | 0.836
16 | HARA | 0.961 | 0.804 | 0.783 | 0.738 | 0.788 | 0.671 | 0.79 | 0.357 | 0.114 | 0.111 | 1.18 | 1.11 | 1.1 | 1.15 | 1.14 | 1.05 | 1.03 | 0.83 | 0.798 | 0.744
17 | HCC-15 | 0.915 | 0.88 | 0.816 | 0.858 | 0.759 | 0.362 | 0.279 | 0.191 | 0.105 | 0.106 | 0.719 | 0.662 | 0.658 | 0.676 | 0.623 | 1.05 | 1.04 | 0.969 | 0.845 | 0.715
